{"source": "paper PMC6158786", "about": "(ACS chemical biology, 2018)", "assay_type_in_all_cases": "biochemical", "key": {"human BCO1 [1]": {"biological_target": "T1, human BCO1 (Homo sapiens, UniProt Q9HAY6)", "T1 sequence (Q9HAY6 1-547)": "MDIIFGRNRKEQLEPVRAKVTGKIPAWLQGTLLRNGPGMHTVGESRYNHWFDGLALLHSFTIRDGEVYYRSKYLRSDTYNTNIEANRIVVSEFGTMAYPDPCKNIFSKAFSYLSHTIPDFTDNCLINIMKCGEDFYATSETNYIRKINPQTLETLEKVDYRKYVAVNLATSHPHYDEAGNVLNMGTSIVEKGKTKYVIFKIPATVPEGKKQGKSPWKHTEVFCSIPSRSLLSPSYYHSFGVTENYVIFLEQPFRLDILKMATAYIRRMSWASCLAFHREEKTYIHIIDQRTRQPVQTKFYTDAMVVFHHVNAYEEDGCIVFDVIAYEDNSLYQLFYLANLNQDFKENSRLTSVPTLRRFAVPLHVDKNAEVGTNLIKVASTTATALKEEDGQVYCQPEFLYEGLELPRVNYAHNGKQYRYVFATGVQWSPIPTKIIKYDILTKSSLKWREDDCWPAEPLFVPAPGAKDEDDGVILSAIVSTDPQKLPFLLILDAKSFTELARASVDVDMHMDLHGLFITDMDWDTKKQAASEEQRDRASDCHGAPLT", "assay": "HPLC product formation", "details": "DMN micelles, pH 7, 30 °C, 12 min"}, "human BCO1 [2]": {"biological_target": "T2, human BCO1 (Homo sapiens, UniProt Q9HAY6, W270F)", "T2 sequence (Q9HAY6 1-547 W270F)": "T1 sequence (Q9HAY6 1-547) with W270F", "assay": "HPLC product formation with E. coli protein extract", "details": "DMN micelles, 30 °C; product all-trans-3-hydroxy-retinal"}, "human BCO1 [3]": {"biological_target": "T3, human BCO1 (Homo sapiens, UniProt Q9HAY6, L168G/W270F)", "T3 sequence (Q9HAY6 1-547 L168G/W270F)": "T1 sequence (Q9HAY6 1-547) with L168G, W270F", "assay": "HPLC product formation with E. coli protein extract", "details": "DMN micelles, 30 °C; product all-trans-3-hydroxy-retinal"}, "human BCO1 [4]": {"biological_target": "T1, human BCO1", "assay": "inhibition of BC cleavage by E. coli crude extract, HPLC", "details": "20 μM BC, 10 μM fenretinide, DMN micelles"}}, "note": "Numbering of substitutions follows the chain as printed.", "data": [{"smiles": "CC1=C(/C=C/C(C)=C/C=C/C(C)=C/C=C/C=C(C)/C=C/C=C(C)/C=C/C2=C(C)CCCC2(C)C)C(C)(C)CCC1", "note": "[BC, β,β-carotene]", "values": [{"measurement": "HPLC product formation", "setting": "human BCO1 [1]; product all-trans-retinal", "result": "BCO1 catalyzed the production of all-trans-retinal from BC"}]}, {"smiles": "CC1=C(/C=C/C(C)=C/C=C/C(C)=C/C=C/C=C(C)/C=C/C=C(C)/C=C/C2=C(C)C[C@@H](O)CC2(C)C)C(C)(C)CCC1", "note": "[CX, 3R-β,β-Caroten-3-ol]", "values": [{"measurement": "HPLC product formation", "setting": "human BCO1 [1]; products all-trans-retinal and 3-hydroxy-retinal", "result": "all-trans-retinal and all-trans-3-hydroxy-retinal resulting from CX cleavage displayed distinct retention times"}]}, {"smiles": "CC1=C(/C=C/C(C)=C/C=C/C(C)=C/C=C/C=C(C)/C=C/C=C(C)/C=C/C2=C(C)C[C@@H](O)CC2(C)C)C(C)(C)C[C@H](O)C1", "note": "[ZEA, zeaxanthin]", "values": [{"measurement": "HPLC product formation with E. coli protein extract", "setting": "human BCO1 [2]", "result": "mutant BCO1 variants readily converted zeaxanthin to all-trans-3-hydroxy-retinal in repeated assays"}, {"measurement": "HPLC product formation with E. coli protein extract", "setting": "human BCO1 [3]", "result": "mutant BCO1 variants readily converted zeaxanthin to all-trans-3-hydroxy-retinal in repeated assays"}]}, {"smiles": "CC1=C(/C=C/C(C)=C/C=C/C(C)=C/C(=O)Nc2ccc(O)cc2)C(C)(C)CCC1", "note": "[fenretinide]", "values": [{"measurement": "inhibition at 10 μM", "setting": "human BCO1 [4]", "result": "fenretinide, a known BCO1 inhibitor, efficiently inhibited the enzymatic activity of BCO1"}]}]}
